According to patent publication US6737383B1, “Herbicidal oxadiazolidines” (priority 1999, dated 2004):

Key:
[1] = test system: bamyardgrass; experiment: Test B flood test barnyardgrass; type: in vivo, Echinochloa crus-galli; settings: for Plant response rating, Barnyardgrass: Rate 500 g/ha
Procedure, shortened: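 Each value is a visual injury score relative to controls, with 10 meaning complete control and 0 no effect. Evaluation took place twelve to sixteen days after the 2-leaf-stage plants were treated and kept in the greenhouse.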

[2] = test system: surinam grass; experiment: Test B pre/postemergence surinam grass; type: in vivo, Brachiaria decumbens; settings: for B. signalgrass plant response rating (0 to 10 scale): 0 is no effect
Procedure, shortened: (§1)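 Test chemicals in a non-phytotoxic solvent mixture with surfactant were sprayed preemergence onto planted seeds and postemergence onto plants 2 to 18 cm tall (1- to 4-leaf stage). After twelve to sixteen days in a greenhouse, injury was visually rated against untreated controls from 0 (no effect) to 10 (complete control).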

[3] = test system: blackgrass; experiment: Test B pre/postemergence blackgrass; type: in vivo, Alopecurus myosuroides; settings: for Blackgrass plant response rating (0 to 10 scale): 0 is no effect
Procedure, shortened: as §1

[4] = test system: bedstraw; experiment: Test B pre/postemergence bedstraw; type: in vivo, Galium aparine; settings: for Bedstraw plant response rating (0 to 10 scale): 0 is no effect
Procedure, shortened: as §1

[5] = Rate 62 g/ha, headed Pre-emergence (flood test species), scale 0 to 10 (0 no effect, 10 complete control)
[6] = Rate 125 g/ha, Pre-emergence, flood test species, scale 0 to 10 where 0 is no effect and 10 is complete control
[7] = Rate 250 g/ha, Pre-emergence, flood-test species, scale 0 to 10, 0 is no effect, 10 is complete control
[8] = headed Pre-emergence (flood test species), scale 0 to 10 (0 no effect, 10 complete control)
[9] = Postemergence, Rate 1000 g/ha, scale 0 to 10 (0 no effect, 10 complete control)
[10] = Preemergence, Rate 62 g/ha, scale of 0 to 10 where 0 is no effect and 10 is complete control
[11] = Preemergence, Rate 125 g/ha, 10 is complete control
[12] = Preemergence, Rate 250 g/ha, scale 0 to 10, 0 is no effect, 10 is complete control
[13] = Preemergence, Rate 500 g/ha, scale 0 to 10 (0 no effect, 10 complete control)
[14] = Rate 62 g/ha, Postemergence, scale of 0 to 10 where 0 is no effect and 10 is complete control
[15] = Rate 125 g/ha, Postemergence, scale 0 (no effect) to 10 (complete control)
[16] = Rate 250 g/ha, Postemergence, scale 0 to 10, 0 is no effect, 10 is complete control
[17] = Rate 500 g/ha, Postemergence, scale 0 to 10, 0 no effect, 10 complete control
[18] = Rate 1000 g/ha, Preemergence, scale 0 to 10 (0 no effect, 10 complete control)
[19] = Rate 2000 g/ha, Postemergence, scale 0 to 10
[20] = Rate 2000 g/ha, Preemergence, scale 0 to 10
[21] = Rate 125 g/ha, Postemergence, scale 0 to 10
[22] = Rate 500 g/ha, Postemergence, scale 0 to 10

Compound | Barnyardgrass plant response rating [1, 5] | Barnyardgrass plant response rating [1, 6] | Barnyardgrass plant response rating [1, 7] | Plant response rating, Barnyardgrass [1, 8] | B. signalgrass plant response rating [2, 10] | B. signalgrass plant response rating (0 to 10 scale) [2, 11] | B. signalgrass plant response rating [2, 12] | B. signalgrass plant response rating [2, 13] | B. signalgrass plant response rating [2, 14] | B. signalgrass plant response rating [2, 15] | Plant response rating, B. signalgrass [2, 16] | B. signalgrass plant response rating [2, 17] | Blackgrass plant response rating [3, 10] | Blackgrass plant response rating (0 to 10 scale) [3, 11] | Blackgrass plant response rating [3, 12] | Blackgrass plant response rating [3, 13] | Blackgrass plant response rating [3, 14] | Blackgrass plant response rating [3, 21] | Plant response rating (0 to 10; 0 is no effect, 10 is complete control), Blackgrass ([3]; Rate 250 g/ha, Postemergence) | Blackgrass plant response rating [3, 22] | other results
CCN(C(=O)n1oc(=O)n(N(C)c2ccccc2)c1=O)C1CCCCC1 [Compound 183] | 0 | 0 | 0 | 0 | 0 | 0 | 4 | 4 | 0 | 0 | 0 | 0 | 0 | 0 | 0 | 0 | 0 | 0 | 0 | 0 | Barnyardgrass plant response rating ([1]; Rate 1000 g/ha, Pre-emergence (as headed), scale 0 to 10): 0; Barnyardgrass plant response rating ([1]; Rate 2000 g/ha, Pre-emergence (as headed), scale 0 to 10, 0 no effect, 10 complete control): 0; B. signalgrass plant response rating [2, 9]: 0; Plant response rating, B. signalgrass [2, 18]: 0; B. signalgrass plant response rating [2, 19]: 0; B. signalgrass plant response rating [2, 20]: 2; Blackgrass plant response rating [3, 9]: 0; Plant response rating, Blackgrass [3, 18]: 1; Blackgrass plant response rating [3, 19]: 0; Blackgrass plant response rating [3, 20]: 2; Bedstraw plant response rating [4, 10]: 0; Bedstraw plant response rating (0 to 10 scale) [4, 11]: 0; Bedstraw plant response rating [4, 12]: 0; Bedstraw plant response rating [4, 13]: 7; Bedstraw plant response rating [4, 14]: 0; Bedstraw plant response rating [4, 21]: 0; Plant response rating (0 to 10; 0 is no effect, 10 is complete control), Bedstraw ([4]; Rate 250 g/ha, Postemergence): 7; Bedstraw plant response rating [4, 22]: 3; Plant response rating, Bedstraw [4, 18]: 7; Bedstraw plant response rating [4, 20]: 10
COc1nc(OC)nc(N(C(=O)n2oc(=O)n(-c3c(C)cccc3C)c2=O)C(C)C)n1 [Compound 180] | 0 | 0 | 0 | 0 | 0 | 0 | 0 | 0 | 0 | 0 | 0 | 0 | 0 | 0 | 0 | 0 | 0 | 0 | 0 | 0 | Bedstraw plant response rating [4, 10]: 0; Bedstraw plant response rating (0 to 10 scale) [4, 11]: 0; Bedstraw plant response rating [4, 12]: 0; Bedstraw plant response rating [4, 13]: 0; Bedstraw plant response rating [4, 14]: 0; Bedstraw plant response rating [4, 21]: 0; Plant response rating (0 to 10; 0 is no effect, 10 is complete control), Bedstraw ([4]; Rate 250 g/ha, Postemergence): 0; Bedstraw plant response rating [4, 22]: 0
